# Experimental data published in ChEMBL document CHEMBL3112480, “γ-Alkylidene-γ-lactones and isobutylpyrrol-2(5H)-ones analogues to rubrolides as inhibitors of biofilm formation by gram-positive and gram-negative bacteria” (Bioorg Med Chem Lett, 2014).
# Assays:
# Streptococcus mutans [1] = assay: Antibacterial activity against Streptococcus mutans ATCC 25175 assessed as effect on planktonic growth at 0.68 ug/ml after 20 hrs relative to control; format: functional
# Pseudomonas aeruginosa [2] = assay: Antibacterial activity against Pseudomonas aeruginosa ATCC 27853 assessed as effect on planktonic growth at 0.34 ug/ml after 20 hrs relative to control; format: functional
# [3] = tested on: Staphylococcus epidermidis; assay: Antibacterial activity against Staphylococcus epidermidis ATCC 35547 assessed as effect on planktonic growth at 43.8 ug/ml after 20 hrs relative to control; format: functional
# [4] = tested on: Staphylococcus epidermidis; assay: Antibacterial activity against Staphylococcus epidermidis ATCC 35547 assessed as effect on planktonic growth at 2.73 ug/ml after 20 hrs relative to control; format: functional
# Pseudomonas aeruginosa [5] = assay: Antibacterial activity against Pseudomonas aeruginosa ATCC 27853 assessed as effect on planktonic growth at 10.9 ug/ml after 20 hrs relative to control; format: functional
# Staphylococcus aureus [6] = assay: Antibacterial activity against Staphylococcus aureus ATCC 25923 assessed as effect on planktonic growth at 21.9 ug/ml after 20 hrs relative to control; format: functional
# Staphylococcus aureus [7] = assay: Antibacterial activity against Staphylococcus aureus ATCC 25923 assessed as effect on planktonic growth at 5.5 ug/ml after 20 hrs relative to control; format: functional
# Streptococcus mutans [8] = assay: Antibacterial activity against Streptococcus mutans ATCC 25175 assessed as effect on planktonic growth at 87.5 ug/ml after 20 hrs relative to control; format: functional
# Streptococcus mutans [9] = assay: Antibacterial activity against Streptococcus mutans ATCC 25175 assessed as effect on planktonic growth at 0.34 ug/ml after 20 hrs relative to control; format: functional
# Streptococcus mutans [10] = assay: Antibacterial activity against Streptococcus mutans ATCC 25175 assessed as effect on planktonic growth at 21.9 ug/ml after 20 hrs relative to control; format: functional
# Pseudomonas aeruginosa [11] = assay: Antibacterial activity against Pseudomonas aeruginosa ATCC 27853 assessed as effect on planktonic growth at 5.5 ug/ml after 20 hrs relative to control; format: functional
# Streptococcus mutans [12] = assay: Antibacterial activity against Streptococcus mutans ATCC 25175 assessed as effect on planktonic growth at 0.17 ug/ml after 20 hrs relative to control; format: functional
# Pseudomonas aeruginosa [13] = assay: Antibacterial activity against Pseudomonas aeruginosa ATCC 27853 assessed as effect on planktonic growth at 0.17 ug/ml after 20 hrs relative to control; format: functional
# Pseudomonas aeruginosa [14] = assay: Antibacterial activity against Pseudomonas aeruginosa ATCC 27853 assessed as effect on planktonic growth at 87.5 ug/ml after 20 hrs relative to control; format: functional
# [15] = tested on: Staphylococcus epidermidis; assay: Antibacterial activity against Staphylococcus epidermidis ATCC 35547 assessed as effect on planktonic growth at 10.9 ug/ml after 20 hrs relative to control; format: functional
# Staphylococcus aureus [16] = assay: Antibacterial activity against Staphylococcus aureus ATCC 25923 assessed as effect on planktonic growth at 2.73 ug/ml after 20 hrs relative to control; format: functional
# [17] = tested on: Staphylococcus epidermidis; assay: Antibacterial activity against Staphylococcus epidermidis ATCC 35547 assessed as effect on planktonic growth at 0.68 ug/ml after 20 hrs relative to control; format: functional
# Pseudomonas aeruginosa [18] = assay: Antibacterial activity against Pseudomonas aeruginosa ATCC 27853 assessed as inhibition of biofilm formation after 20 hrs by crystal-violet staining method; format: functional, organism-based
# Streptococcus mutans [19] = assay: Antibacterial activity against Streptococcus mutans ATCC 25175 assessed as effect on planktonic growth at 43.8 ug/ml after 20 hrs relative to control; format: functional
# [20] = tested on: Staphylococcus epidermidis; assay: Antibacterial activity against Staphylococcus epidermidis ATCC 35547 assessed as effect on planktonic growth at 87.5 ug/ml after 20 hrs relative to control; format: functional
# Pseudomonas aeruginosa [21] = assay: Antibacterial activity against Pseudomonas aeruginosa ATCC 27853 assessed as effect on planktonic growth at 1.37 ug/ml after 20 hrs relative to control; format: functional
# Staphylococcus aureus [22] = assay: Antibacterial activity against Staphylococcus aureus ATCC 25923 assessed as effect on planktonic growth at 43.8 ug/ml after 20 hrs relative to control; format: functional
# [23] = tested on: Staphylococcus epidermidis; assay: Antibacterial activity against Staphylococcus epidermidis ATCC 35547 assessed as effect on planktonic growth at 5.5 ug/ml after 20 hrs relative to control; format: functional
# Staphylococcus aureus [24] = assay: Antibacterial activity against Staphylococcus aureus ATCC 25923 assessed as effect on planktonic growth at 0.34 ug/ml after 20 hrs relative to control; format: functional
# Pseudomonas aeruginosa [25] = assay: Antibacterial activity against Pseudomonas aeruginosa ATCC 27853 assessed as effect on planktonic growth at 43.8 ug/ml after 20 hrs relative to control; format: functional
# Staphylococcus aureus [26] = assay: Antibacterial activity against Staphylococcus aureus ATCC 25923 assessed as effect on planktonic growth at 0.17 ug/ml after 20 hrs relative to control; format: functional
# Streptococcus mutans [27] = assay: Antibacterial activity against Streptococcus mutans ATCC 25175 assessed as effect on planktonic growth at 1.37 ug/ml after 20 hrs relative to control; format: functional
# Staphylococcus aureus [28] = assay: Antibacterial activity against Staphylococcus aureus ATCC 25923 assessed as effect on planktonic growth at 1.37 ug/ml after 20 hrs relative to control; format: functional
# Staphylococcus aureus [29] = assay: Antibacterial activity against Staphylococcus aureus ATCC 25923 assessed as effect on planktonic growth at 10.9 ug/ml after 20 hrs relative to control; format: functional
# Streptococcus mutans [30] = assay: Antibacterial activity against Streptococcus mutans ATCC 25175 assessed as effect on planktonic growth at 5.5 ug/ml after 20 hrs relative to control; format: functional
# Pseudomonas aeruginosa [31] = assay: Induction of biofilm formation in Pseudomonas aeruginosa ATCC 27853 at 87.5 ug/ml after 20 hrs by crystal-violet staining method relative to control; format: organism-based
# [32] = tested on: Staphylococcus epidermidis; assay: Antibacterial activity against Staphylococcus epidermidis ATCC 35547 assessed as effect on planktonic growth at 1.37 ug/ml after 20 hrs relative to control; format: functional
# Staphylococcus aureus [33] = assay: Antibacterial activity against Staphylococcus aureus ATCC 25923 assessed as effect on planktonic growth at 0.68 ug/ml after 20 hrs relative to control; format: functional
# Staphylococcus aureus [34] = assay: Antibacterial activity against Staphylococcus aureus ATCC 25923 assessed as effect on planktonic growth at 87.5 ug/ml after 20 hrs relative to control; format: functional
# [35] = tested on: Staphylococcus epidermidis; assay: Antibacterial activity against Staphylococcus epidermidis ATCC 35547 assessed as effect on planktonic growth at 0.34 ug/ml after 20 hrs relative to control; format: functional
# Pseudomonas aeruginosa [36] = assay: Antibacterial activity against Pseudomonas aeruginosa ATCC 27853 assessed as effect on planktonic growth at 2.73 ug/ml after 20 hrs relative to control; format: functional
# Streptococcus mutans [37] = assay: Antibacterial activity against Streptococcus mutans ATCC 25175 assessed as effect on planktonic growth at 2.73 ug/ml after 20 hrs relative to control; format: functional
# Pseudomonas aeruginosa [38] = assay: Antibacterial activity against Pseudomonas aeruginosa ATCC 27853 assessed as effect on planktonic growth at 21.9 ug/ml after 20 hrs relative to control; format: functional
# [39] = tested on: Staphylococcus epidermidis; assay: Antibacterial activity against Staphylococcus epidermidis ATCC 35547 assessed as effect on planktonic growth at 0.17 ug/ml after 20 hrs relative to control; format: functional
# [40] = tested on: Staphylococcus epidermidis; assay: Antibacterial activity against Staphylococcus epidermidis ATCC 35547 assessed as effect on planktonic growth at 21.9 ug/ml after 20 hrs relative to control; format: functional
# Streptococcus mutans [41] = assay: Antibacterial activity against Streptococcus mutans ATCC 25175 assessed as effect on planktonic growth at 10.9 ug/ml after 20 hrs relative to control; format: functional
# Pseudomonas aeruginosa [42] = assay: Antibacterial activity against Pseudomonas aeruginosa ATCC 27853 assessed as effect on planktonic growth at 0.68 ug/ml after 20 hrs relative to control; format: functional
# [43] = tested on: Staphylococcus epidermidis; assay: Antibacterial activity against Staphylococcus epidermidis ATCC 35547 assessed as inhibition of biofilm formation after 20 hrs by crystal-violet staining method; format: functional, organism-based
# Streptococcus mutans [44] = assay: Antibacterial activity against Streptococcus mutans OMZ175 assessed as inhibition of biofilm formation at 6 uM relative to control; format: functional
structure (smiles),measurement,setting,value
COc1cccc(/C=C2\C(c3cc(Cl)ccc3OC)=C(Br)C(=O)N2CC(C)C)c1,Activity,Streptococcus mutans [1],-1.7%
same,Activity,Pseudomonas aeruginosa [2],2.9%
same,Activity,[3],44.9%
same,Activity,[4],1.5%
same,Activity,Pseudomonas aeruginosa [5],8.8%
same,Activity,Staphylococcus aureus [6],14%
same,Activity,Staphylococcus aureus [7],92.3%
same,Activity,Streptococcus mutans [8],76.4%
same,Activity,Streptococcus mutans [9],6.1%
same,Activity,Streptococcus mutans [10],14.8%
same,Activity,Pseudomonas aeruginosa [11],2.8%
same,Activity,Streptococcus mutans [12],2.2%
same,Activity,Pseudomonas aeruginosa [13],18%
same,Activity,Pseudomonas aeruginosa [14],9.6%
same,Activity,[15],12.7%
same,Activity,Staphylococcus aureus [16],34%
same,Activity,[17],0.3%
same,inhibition,Pseudomonas aeruginosa [18],Dose-dependent effect
same,Activity,Streptococcus mutans [19],44.1%
same,Activity,[20],45.3%
same,Activity,Pseudomonas aeruginosa [21],-6.6%
same,Activity,Staphylococcus aureus [22],20.4%
same,Activity,[23],4.1%
same,Activity,Staphylococcus aureus [24],49.8%
same,Activity,Pseudomonas aeruginosa [25],24.2%
same,Activity,Staphylococcus aureus [26],45.5%
same,Activity,Streptococcus mutans [27],-3.9%
same,Activity,Staphylococcus aureus [28],36.2%
same,Activity,Staphylococcus aureus [29],11.5%
same,Activity,Streptococcus mutans [30],8.3%
same,Activity,Pseudomonas aeruginosa [31],84.6%
same,Activity,[32],4.2%
same,Activity,Staphylococcus aureus [33],39.1%
same,Activity,Staphylococcus aureus [34],9.8%
same,Activity,[35],0.4%
same,Activity,Pseudomonas aeruginosa [36],-5.3%
same,Activity,Streptococcus mutans [37],3.5%
same,Activity,Pseudomonas aeruginosa [38],19.6%
same,Activity,[39],0.7%
same,Activity,[40],25.4%
same,Activity,Streptococcus mutans [41],17%
same,Activity,Pseudomonas aeruginosa [42],0.3%
same,inhibition,[43],Dose-dependent effect
same,IC50,"[43]; ATCC 35547, 20 h",> 87.5 µg/mL
O=C1C=C/C(=C/Br)O1,inhibition at 6 µM,Streptococcus mutans [44],26%
